# Measurements as given in paper PMC5581131, “The novel sphingosine-1-phosphate receptors antagonist AD2900 affects lymphocyte activation and inhibits T-cell entry into the lymph nodes” (Oncotarget, 2017).
# Experiments:
# activated PBMCs = assay: Apoptosis of activated PBMCs, AnnexinV-PI FACS after MLR; format: cell-based, human; conditions: 1-day pretreatment, 5 days of MLR
# Experimental: Figure 1 AD2900 inhibits human lymphocyte proliferation in allogeneic activation (A, B) The levels of proliferative response of human peripheral blood lymphocytes (PBMCs) after 1-day pretreatment with different concentrations of AD2900, AD2750, YZ138, YZ158, and YZ297 (A) or AD2900, FTY720, and SEW2871 (B) were tested by human allogeneic mixed lymphocyte reaction (MLR) assay, followed by a [3H] thymidine incorporation analysis. (C) Apoptosis of AD2900-treated activated PBMCs was tested by AnnexinV-propidium iodide (PI) FACS analysis following 1-day AD2900 pretreatment and MLR. All the samples were compared to the untreated PBMC control. (D) IFN-γ secretion from activated PBMCs was tested by ELISA following a 1-day AD2900 pretreatment in MLR. On the 5th day of hMLR, supernatants were collected and assayed for the level of IFN-γ. (E) Jurkat cell viability after a 1-day treatment with different concentrations of AD2900, FTY720, and SEW2871 was tested by XTT viability assay. […]
# (§1) Human PBLs were collected from human whole blood collected from healthy donors. […] For the thymidine incorporation assay, after 4 days of co-culture, cells were pulsed with ^3H-thymidine at 1 μCi (0.037MBq) per well (PerkinElmer, MA, USA) for 16 additional hours and then harvested onto glass-fiber filters. ^3H-thymidine incorporation was measured using Top Count. […]
# human PBMCs = assay: Human allogeneic mixed lymphocyte reaction (MLR), [3H] thymidine incorporation, 1-day pretreatment; format: cell-based
# Experimental: To select an analogue with potential anti-inflammatory activity, the effects of six of our unique synthetic sphingolipid analogues (all chemical structures can be found in Supplementary Figure 1A) on human immune cell activation were examined. Human PBMCs were cultured with the compounds for 1 day at different concentrations. The cells were then activated by PBMCs from a different donor in a mixed lymphocyte reaction (MLR) experiment. […] The amine derivative, AD2900, is substituted with amino diols. Structurally, AD2900 has a hydroxymethyl group on carbon 2 and no phenyl substitution. These characteristics cause AD2900 to be more hydrophilic than other analogues. In addition, previous studies have shown that AD2900 has a higher lethal dose 50% (LD50), which is above 100 mg/kg, and it is stable at room temperature for at least 2 years (unpublished data). Based on these characteristics, AD2900 was selected for further investigation. […]
# as §1
smiles,measurement,setting,value
CCCCCCCCCCCCCCCCNC(CO)(CO)CO [AD2900],concentrations at which apoptosis was induced on activated PBMCs,activated PBMCs,above 10 μM
same,inhibitory effect on lymphocyte activation compared to FTY720 and SEW2817,"human PBMCs; 1-day pretreatment prior to MLR, concentrations of 6–20 μM",compromised effect in comparison to FTY720 but a higher inhibitory effect than that with SEW2817
same,inhibition of PBMC proliferation,"human PBMCs; 1-day pretreatment, MLR, mean of up to, at the highest concentration",76% ± 4%
